Measured values published in patent publication US4732902A, “Pyrroloisoquinolinyl-dimethyloxoalkyl alkonoates and their use as antipsychotic agents” (Hoffmann-La Roche Inc., priority 1986, dated 1988).
Several values for one entry are separate records, joined by “and”; a condition that tells them apart may be missing. Equal entries are not always repeated.

Assays:
dopamine receptors = biological target: T1, dopamine receptors (Rattus norvegicus, UniProt P61169); assay: 3H-spiroperidol binding test in rat striatal brain homogenates; details: 0.2 nanomolar 3H-spiroperidol, 20 min incubation, no esterases, read-out: 3H-Spiroperidol binding in vitro, IC50
T1 construct: rat striatal brain homogenates; from tissue; host or cells: rat striatum (brain homogenate)
T1 sequence (P61169 whole entry): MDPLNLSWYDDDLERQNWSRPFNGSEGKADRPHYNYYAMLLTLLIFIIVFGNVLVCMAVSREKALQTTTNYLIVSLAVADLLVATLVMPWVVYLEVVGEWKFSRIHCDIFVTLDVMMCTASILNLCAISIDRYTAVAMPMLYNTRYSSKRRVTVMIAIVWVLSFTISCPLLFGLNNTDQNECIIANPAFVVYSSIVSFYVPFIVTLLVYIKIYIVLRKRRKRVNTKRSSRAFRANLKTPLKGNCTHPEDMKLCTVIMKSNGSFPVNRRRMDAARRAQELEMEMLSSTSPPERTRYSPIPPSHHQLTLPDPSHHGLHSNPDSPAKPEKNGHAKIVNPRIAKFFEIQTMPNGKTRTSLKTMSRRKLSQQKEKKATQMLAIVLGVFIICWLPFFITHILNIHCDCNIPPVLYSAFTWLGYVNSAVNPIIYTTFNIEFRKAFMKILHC
Procedure: Spiroperidol binding test. In the absence of esterases which trigger the release of the compound of formula II from the compound of formula I, there is only weak activity in the 3H-spiroperiodol binding assay, an in vitro test which measures binding to dopamine receptors. In this test, rat striatal brain homogenates were incubated for 20 min. in the presence of 0.2 nanomolar ^3 H-spiroperidol and varying concentrations of test compounds. The incubations were terminated by rapid filtration through Whatman GF/B filters. followed by 2×5 mL washes with ice-cold assay buffer (50 mM tribase-HCl pH 7.7 which contains fixed concentrations of 0.1% ascorbic acid, 120 mM sodium chloride, 5 mM potassium chloride, 2 mM calcium chloride, and 1 mM magnesium chloride).

[1] = Esterase cleavage of prodrug esters by incubation with rat liver homogenate; assay type: in vitro ADME; details: liver 9000xg supernatant, rat liver 9,000×g supernatant, pH 7.4, 37° C., 0.5 μmole substrate, read-out: Formation of IIa (piquindone) as % of incubated test compound I in 1 hr.
Procedure: In this test, acetone solutions of the test compounds (0.5 μmole/50 μL) were added to an incubation medium consisting of 2.7 ml 0.1M potassium hydrogenphosphate (pH 7.4) and 0.3 ml rat liver 9,000×g supernatant. The media were then incubated for 1 hour at 37° C. Controls consisted of a sample containing the complete medium and substrate which was not incubated, a sample containing only phosphate buffer and substrate, and a sample containing the complete medium but lacking substrate.
The incubation media were fractionated with a Waters C-18 SEP-PAK. Prior to sample application, the SEP-PAK was washed with 10 ml of methanol and 20 ml of water. After sample application, the SEP-Pak was washed with 10 ml of water and 3 ml of methanol. The amount of the liberated compound of formula II was measured by high pressure liquid chromatography on a 30-cm Waters μ-Bondapak C-18 column, equilibrated with 70:30:1 methanol:water:ammonium hydroxide.

[2] = system: male SPF rats (conditioned avoidance response); assay: Pole climb avoidance test; assay type: in vivo; details: rat; for ED50 / ED (90-100): im, intramuscular in sesame oil; for ED50: at peak of action, read-out: Blockade of Avoidance Response (BAR), acute ED50; for ED (90-100): dose giving 90-100% block within 24 hours, read-out: Blockade of Avoidance Response (BAR), acute 100% BAR dose
Source text: In vivo activity. Pole Climb Avoidance Test. In the pole climb test, antipsychotics characteristically disrupt an acquired discrete conditioned avoidance behavior in doses well below those which suppress the response to unconditioned stimuli (escape). The principle of the test procedure was described by Courvoisier S. et al. (Arch. Int. Pharmacodyn 92, 305, 1954), Cook, L. et al. (Ann. N.Y. Acad. Sci. 66, 740-752, 1957) and Pfeiffer, C. et al. (Ann, N.Y. Acad. Sci. 66, 753-764, 1957).
The animals were male SPF rats (stock Fuellinsdorf Albino, outbred) weighing 200-220 g at the end of a discrete conditioned avoidance training.
The test apparatus was a sound-attenuated plexiglass chamber (41×30×30 cm). The floor was a grid consisting of 27 stainless steel rods, to which a scrambled current of 0,8 mA could be delivered by means of a stimulator. The safety area was a vertical pole (4,3 cm diameter, 24 cm long) attached to the top of the chamber. The free lower end of the pole was 6 cm above the grid floor. A buzzer was mounted within the testing enclosure.
The rats were placed in the plexiglass chamber and trained to jump to the pole during a buzzer stimulus (conditioned stimulus CS) lasting 10 sec, in order to avoid an immediately following electrical footshock (unconditioned stimulus US) of 30 sec duration delivered to the grid floor in addition to the CS. If the rat climbed to the pole during the CS or CS plus US, the stimuli (buzzer, footshock) were immediately terminated.
The pole climb response occurring during the CS period is called an avoidance response or conditioned response (CAR or CR), that occurring during exposure to CS plus US escape response of unconditioned response (UER or UR). Following one training trial (exposure to one CS and US respectively) the rats were returned to their home cage. After 15-17 trials rats were jumping during the buzzer stimulation only and were ready for drug testing.
A group of 10 trained rats was used per dose (graded doses, geometric progression: factor 3.16). The test compounds were administered intramuscularly in a sesame oil solution containing 25 mg of compounds per ml of solution.
Dose-effect curves of block of conditioned response (BCR) were constructed by plotting the log dose against the effect (in percent BCR) at the peak of action. From these curves the ED50 for BCR were graphically determined. The potency of a drug for suppressing CR was expressed by the ED50 for BCR. For the evaluation of the long-term effect, a drug dose eliciting a non-supra-maximal 90-100% block of avoidance response within 24 hours was followed up at 24 hour intervals.

[3] = single i.m. 100% BAR dose in sesame oil

IC50 (dopamine receptors) | metabolised at 1 h [1] [%] | Structure (SMILES) | ED50 [2] [mg/kg] | ED (90-100) [2] [mg/kg] | Duration: % BAR, Day 1 [2, 3] [%] | Duration: % BAR, Day 2 [2, 3] [%] | Duration: % BAR, Day 3 ([2]; single i.m. 100% BAR dose in sesame oil, Day 3) [%] | Duration: % BAR, Day 4 ([2]; single i.m. 100% BAR dose in sesame oil, Day 4) [%] | Duration: % BAR, Day 5 ([2]; single i.m. 100% BAR dose in sesame oil, Day 5) [%] | Duration: % BAR, Day 6-13 ([2]; single i.m. 100% BAR dose in sesame oil, Days 6-13)
1000 nM | 12.1 ± 0.4 | CCCCCCCCCCCCCCCCCC(=O)OCCC(C)(C)C(=O)n1c(C)c(CC)c2c1C[C@H]1CCN(C)C[C@@H]1C2=O (relative stereo) [If, 2,6-Dimethyl-1-[2,2-dimethyl-4-[(1-oxooctadecyl)oxy]-1-oxobutyl]-3-ethyl-1,4a,5,6,7,8,8a,9-octahydro-4a,8a-trans-4H-pyrrolo[2,3-g]isoquinolin-4-one] | 16.2 | 30 | 100 | 10 | – | – | – | –
640 nM | 31 ± 1 | CCCCCCCCCCCCCCCC(=O)OCCC(C)(C)C(=O)n1c(C)c(CC)c2c1C[C@H]1CCN(C)C[C@@H]1C2=O (relative stereo) [Ie, 2,6-Dimethyl-1-[2,2-dimethyl-4-[(1-oxohexadecyl)oxy]-1-oxobutyl]-3-ethyl-1,4a,5,6,7,8,8a,9-octahydro-4a,8a-trans-4H-pyrrolo[2,3-g]isoquinolin-4-one] | 17 | 30 | 100 | 10 | – | – | – | –
195 nM | 104 ± 3.3 | CCCCCCCC(=O)OCCC(C)(C)C(=O)n1c(C)c(CC)c2c1C[C@H]1CCN(C)C[C@@H]1C2=O (relative stereo) [Ib, 2,6-Dimethyl-1-[2,2-dimethyl-4-[(1-oxooctyl)oxy]-1-oxobutyl]-3-ethyl-1,4a,5,6,7,8,8a,9-octahydro-4a,8a-trans-4H-pyrrolo[2,3-g]isoquinolin-4-one] | – | – | – | – | – | – | – | –
870 nM and 1000 nM | 102 | CCCCCCCCCC(=O)OCCC(C)(C)C(=O)n1c(C)c(CC)c2c1C[C@H]1CCN(C)C[C@@H]1C2=O (relative stereo) [Ic, 2,6-Dimethyl-1-[2,2-dimethyl-4-[(1-oxodecyl)oxy]-1-oxo-butyl]-3-ethyl-1,4a,5,6,7,8,8a,9-octahydro-4a,8a-trans-4H-pyrrolo[2,3-g]isoquinolin-4-one] | 3.6 | 10 | 100 | 100 | 100 | 90 | 80 | 50-60%
1000 nM | 11.7 ± 0.7 | CCCCCCCCCCCCCCCCCCCC(=O)OCCC(C)(C)C(=O)n1c(C)c(CC)c2c1C[C@H]1CCN(C)C[C@@H]1C2=O (relative stereo) [Ig, 2,6-Dimethyl-1-[2,2-dimethyl-4-[(1-oxoeicosanoyl)oxy]-1-oxobutyl]-3-ethyl-1,4a,5,6,7,8,8a,9-octahydro-4a,8a-trans-4H-pyrrolo[2,3-g]isoquinolin-4-one] | 13.8 | 30 | 100 | 10 | – | – | – | –
570 nM | 77.2 ± 0.8 | CCCCCCCCCCCC(=O)OCCC(C)(C)C(=O)n1c(C)c(CC)c2c1C[C@H]1CCN(C)C[C@@H]1C2=O (relative stereo) [Id, 2,6-Dimethyl-1-[2,2-dimethyl-4-[(1-oxododecyl)oxy]-1-oxobutyl]-3-ethyl-1,4a,5,6,7,8,8a,9-octahydro-4a,8a-trans-4H-pyrrolo[2,3-g]isoquinolin-4-one] | – | – | – | – | – | – | – | –
250 nM | 88 ± 2 | CCc1c2c(n(C(=O)C(C)(C)CCOC(C)=O)c1C)C[C@H]1CCN(C)C[C@@H]1C2=O (relative stereo) [Ia] | 0.6 | 3 | 90 | 50 | – | – | – | –
